Where a name gives a salt, the structure may show the parent alone.
What was measured:
Aβ42 [1] = assay: γ-secretase-modulating activity, Method 2: Aβ42 Alphalisa in supernatant of SKNBE2 cells carrying APP 695-wild type (Table 3b); assay type: cell-based; conditions: overnight
In short: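 SKNBE2 cells expressing wild-type APP695 were incubated overnight at 37° C. with test compound. Secreted Aβ42 was then measured by AlphaLISA, using a C-terminal Aβ42 antibody paired with an N-terminal Aβ antibody. IC50 came from a 4-parameter fit of percent of compound-free control.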

Aβtotal [2] = assay: γ-secretase-modulating activity, Method 2: Aβtotal Alphalisa in supernatant of SKNBE2 cells carrying APP 695-wild type (Table 3b); assay type: cell-based; conditions: overnight, read-out: IC50 Aβtot
In short: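 SKNBE2 cells expressing wild-type APP 695 were incubated overnight at 37 °C, 5% CO2 with test compound at a range of concentrations. Aβtotal in supernatant was measured by AlphaLISA sandwich (N-terminal JRF/AβN/25 acceptor, biotinylated mid-region 4G8 donor); IC50 from 4-parameter fit of percent control versus log concentration.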

Aβtotal [3] = assay: γ-secretase-modulating activity, Method 1: Aβtotal sandwich ELISA in supernatant of SKNBE2 cells carrying APP 695-wild type; assay type: cell-based; conditions: Table 3a, 18 h, averaged IC50 values
Protocol: (§1) Pharmacology A) Screening of the Compounds of the Invention for γ-Secretase-Modulating Activity A1) Method 1
(§2) Screening was carried out using SKNBE2 cells carrying the APP 695-wild type, grown in Dulbecco's Modified Eagle's Medium/Nutrient mixture F-12 (DMEM/NUT-mix F-12) (HAM) provided by Gibco (cat no. 31330-38) containing 5% Serum/Fe supplemented with 1% non-essential amino acids. Cells were grown to near confluency.
(§3) The screening was performed using the assay as described in Citron et al (1997) Nature Medicine 3: 67. Briefly, cells were plated in a 96-well plate at about 10^5 cells/ml one day prior to addition of compounds. Compounds were added to the cells in Ultraculture (Lonza, BE12-725F) supplemented with 1% glutamine (Invitrogen, 25030-024) for 18 h. The media were assayed by two sandwich ELISAs, for Aβ42 and Aβtotal. Toxicity of the compounds was assayed by WST-1 cell proliferation reagent (Roche, 1 644 807) according to the manufacturer's protocol.
To quantify the amount of Aβtotal in the cell supernatant, samples and standards were added to a 6E10-coated plate. The plate was allowed to incubate overnight at 4° C. in order to allow formation of the antibody-amyloid complex. Following this incubation and subsequent wash steps a selective anti-Aβ-antibody conjugate (biotinylated 4G8) was added and incubated for a minimum of 1 h in order to allow formation of the antibody-Amyloid-antibody-complex. After incubation and appropriate wash steps, a Streptavidine-Peroxidase-Conjugate was added, followed 30 minutes later by an addition of Quanta Blu fluorogenic peroxidase substrate according to the manufacturer's instructions (Pierce Corp., Rockford, Ill.).

Aβ42 [4] = assay: γ-secretase-modulating activity, Method 1: Aβ42 sandwich ELISA in supernatant of SKNBE2 cells carrying APP 695-wild type (Table 3a); assay type: cell-based; conditions: 18 h, averaged IC50 values
Protocol: as §1, §2, §3
To quantify the amount of Aβ42 in the cell supernatant, commercially available Enzyme-Linked-Immunosorbent-Assay (ELISA) kits were used (Innotest® β-Amyloid(1-42), Innogenetics N.V., Ghent, Belgium). The Aβ42 ELISA was performed essentially according to the manufacturer's protocol. Briefly, the standards (dilutions of synthetic Aβ1-42) were prepared in polypropylene Eppendorf with final concentrations of 8000 down to 3.9 pg/ml (1/2 dilution step). Samples, standards and blanks (100 μl) were added to the anti-Aβ42-coated plate supplied with the kit (the capture antibody selectively recognizes the C-terminal end of the antigen). The plate was allowed to incubate 3 h at 25° C. in order to allow formation of the antibody-amyloid complex. Following this incubation and subsequent wash steps a selective anti-Aβ-antibody conjugate (biotinylated 3D6) was added and incubated for a minimum of 1 hour (h) in order to allow formation of the antibody-Amyloid-antibody-complex. After incubation and appropriate wash steps, a Streptavidine-Peroxidase-Conjugate was added, followed 30 minutes later by an addition of 3,3′,5,5′-tetramethylbenzidine (TMB)/peroxide mixture, resulting in the conversion of the substrate into a coloured product. This reaction was stopped by the addition of sulfuric acid (0.9 N) and the colour intensity was measured by means of photometry with an ELISA-reader with a 450 nm filter.
To obtain the values reported in Table 3a, the data were calculated as percentage of the maximum amount of amyloid Beta 42 measured in the absence of the test compound. The sigmoidal dose response curves were analyzed using non-linear regression analysis with percentage of the control plotted against the log concentration of the compound. A 4-parameter equation was used to determine the IC50. The values reported in Table 3a are averaged IC50 values.

Row | IC50 (Aβ42 [1]; Homo sapiens) | melting point | IC50 (Aβtotal [2]; Homo sapiens) | IC50 (Aβtotal [3]) | IC50 (Aβ42 [4]) | IC50 (Aβtotal [3]; Homo sapiens) | IC50 (Aβ42 [4]; Homo sapiens) | IC50 (Aβ42 [1]) | IC50 (Aβtotal [2]) | Compound
1 | 76 nM | 232.1 °C | > 10 µM | – | – | – | – | – | – | COc1cc(-c2nc3n(n2)CCOC3c2cc(OC(F)(F)F)ccc2F)ccc1-n1cnc(C)c1 (centres unmarked) [Compound 281]
2 | 33 nM | – | 3.63 µM | – | – | > 3000 nM | 90 nM | – | – | COc1cc(-c2nc(C)c(-c3cccc(C(F)(F)F)c3)[nH]2)ccc1-n1cnc(C)c1 [Compound 12]
3 | 398 nM | 183 °C | > 10 µM | – | – | – | – | – | – | COc1cc(-c2nc3n(n2)CCNC3c2ccccc2C(F)(F)F)ccc1-n1cnc(C)c1 (centres unmarked) [Compound 278]
4 | – | – | – | > 3000 nM | 500 nM | – | – | 282 nM | 5.25 µM | COc1cc(-c2nc(-c3cccc(C(F)(F)F)c3)c(C)n2C)ccc1-n1cnc(C)c1 [Compound 14]
5 | 45 nM | 193.4 °C | 9.77 µM | – | – | – | – | – | – | COc1cc(-c2nc3nc(-c4ccccc4C(F)(F)F)ccn3n2)ccc1-n1cnc(C)c1 [Compound 291]
6 | 575 nM | 240 °C | > 10 µM | – | – | – | – | – | – | COc1cc(-c2nc(Nc3cccc(C(F)(F)F)n3)n(C)n2)ccc1-n1cnc(C)c1 [Compound 236]
7 | 25 nM | 218 °C | 8.32 µM | – | – | – | – | – | – | COc1cc(-c2nc3n(n2)CCCC3c2ccccc2C(F)(F)F)ccc1-n1cnc(C)c1 (centres unmarked) [Compound 10]
8 | 1050 nM | – | 6.61 µM | – | – | > 3000 nM | 1450 nM | – | – | Cc1cn(-c2ccc(-c3nc(Nc4cccc(C(F)(F)F)c4)n[nH]3)cn2)cn1 [Compound 24]
9 | 76 nM | 211.6 °C | > 10 µM | – | – | – | – | – | – | COc1cc(-c2nc3n(n2)CCCN3c2ccccc2C(F)(F)F)ccc1-n1cnc(C)c1 [Compound 18]
10 | 316 nM | 122.23 °C | > 10 µM | – | – | – | – | – | – | COc1cc(-c2nc(-c3cc(F)c(F)c(F)c3)n(C(C)C)n2)ccc1-n1cnc(C)c1 [Compound 84]
11 | 60 nM | 189.7 °C | > 10 µM | – | – | – | – | – | – | COc1cc(-c2nc(Nc3ccc(F)cc3C)n(C)n2)ccc1-n1cnc(C)c1 [Compound 130]
12 | – | – | – | > 3000 nM | > 3000 nM | – | – | > 3000 nM | > 3 µM | COc1cc(-c2nc(-c3ccccc3)c(C)[nH]2)ccc1-n1cnc(C)n1 [Compound 28]
13 | 562 nM | 159 °C | > 10 µM | – | – | – | – | – | – | COc1cc(-c2nc(-c3ccccc3Cl)n(C(C)C)n2)ccc1-n1cnc(C)c1 [Compound 66]
14 | 537 nM | 176.9 °C | > 10 µM | – | – | – | – | – | – | COc1cc(-c2nc3c(-c4ccccc4C(F)(F)F)nccn3n2)ccc1-n1cnc(C)c1 [Compound 294]
15 | – | – | – | > 3000 nM | > 3000 nM | – | – | 8130 nM | > 10 µM | COc1cc(-c2nc(-c3ccccc3)c(C)[nH]2)ccc1-n1ncnc1C [Compound 299]

Further lines, the compound ahead of its results:

Row | Compound | IC50 (Aβ42 [1]; Homo sapiens) | melting point | IC50 (Aβtotal [2]; Homo sapiens) | IC50 (Aβtotal [3]) | IC50 (Aβ42 [4]) | IC50 (Aβtotal [3]; Homo sapiens) | IC50 (Aβ42 [4]; Homo sapiens) | IC50 (Aβ42 [1]) | IC50 (Aβtotal [2])
16 | COc1cc(-c2nc3nccc(-c4ccccc4C(F)(F)F)n3n2)ccc1-n1cnc(C)c1 [Compound 290] | 224 nM | 191 °C | > 10 µM | – | – | – | – | – | –
17 | COc1cc(-c2nc(CC(C)C)c(C)[nH]2)ccc1-n1cnc(C)c1 [Compound 26] | – | – | – | > 3000 nM | 760 nM | – | – | – | –
18 | COc1cc(-c2nc(Sc3cccc(C(F)(F)F)c3)n(C)n2)ccc1-n1cnc(C)c1 (as salt: HCl) (hydrate or solvate) [Compound 249] | – | 78.4 °C | – | – | – | – | – | – | –
19 | COc1cc(-c2nc(C)c(-c3cccc(C(F)(F)F)c3)n2C)ccc1-n1cnc(C)c1 [Compound 13] | – | – | – | > 3000 nM | 1050 nM | – | – | 724 nM | > 10 µM
20 | COc1cc(-c2nc3n(n2)CCCC3c2ccc(F)cc2C)ccc1-n1cnc(C)c1 (centres unmarked) [Compound 258] | 62 nM | 241.8 °C | > 10 µM | – | – | – | – | – | –
21 | COc1cc(-c2nc3cncc(-c4ccc(F)cc4C)n3n2)ccc1-n1cnc(C)c1 [Compound 295] | 537 nM | 210.7 °C | > 10 µM | – | – | – | – | – | –
22 | COc1cc(-c2nc(Nc3ccccc3C(F)(F)F)n(C)n2)ccc1-n1cnc(C)c1 [Compound 157] | 63 nM | 159.3 °C | > 15 µM | – | – | – | – | – | –
23 | CCCc1[nH]c(-c2ccc(-n3cnc(C)c3)c(OC)c2)nc1-c1ccccc1 [Compound 29] | – | – | – | > 3000 nM | 190 nM | – | – | 170 nM | > 10 µM
24 | COc1cc(-c2nc3n(n2)CCCC3c2ccc(F)cc2)ccc1-n1cnc(C)c1 (centres unmarked) [Compound 251] | 245 nM | 190.5 °C | > 10 µM | – | – | – | – | – | –
25 | COc1cc(-c2nc(Nc3cc(C(C)(C)O)ccc3F)n(C)n2)ccc1-n1cnc(C)c1 [Compound 175] | 89 nM | 193.8 °C | > 10 µM | – | – | – | – | – | –
26 | COc1cc(-n2cnc(C)c2)ccc1-c1nc(-c2ccccc2)c(C)[nH]1 [Compound 27] | – | – | – | > 10000 nM | 170 nM | – | – | < 3000 nM | > 3 µM
27 | COc1cc(-c2nc(C)c(C)[nH]2)ccc1-n1cnc(C)c1 [Compound 25] | – | – | – | > 3000 nM | 2510 nM | – | – | 6460 nM | > 10 µM
28 | COc1cc(-c2nc(Nc3ccccc3C)n(C)n2)ccc1-n1cnc(C)c1 [Compound 97] | 49 nM | 159.4 °C | > 10 µM | – | – | – | – | – | –
29 | COc1ccc(CO)c(Nc2nc(-c3ccc(-n4cnc(C)c4)c(OC)c3)nn2C)c1 [Compound 200] | 158 nM | 235.2 °C | > 10 µM | – | – | – | – | – | –
30 | COc1cc(-c2nc(-c3ccccc3Cl)n(C)n2)ccc1-n1cnc(C)c1 [Compound 2] | 468 nM | 149.3 °C | > 10 µM | – | – | – | – | – | –
31 | COc1nc(-c2nc(Nc3cc(C(F)(F)F)ccc3F)n(C)n2)ccc1-n1cnc(C)c1 [Compound 154] | 17 nM | 230.1 °C | > 10 µM | – | – | – | – | – | –
32 | COc1cc(-c2nc(-c3ccc(-n4cnc(C)c4)c(OC)c3)n[nH]2)ccc1Cl [Compound 20] | 257 nM | 262.6 °C | > 10 µM | – | – | – | – | – | –
33 | COc1cc(-c2nc(C)n(-c3ccc(F)cc3)n2)ccc1-n1cnc(C)c1 [Compound 3] | 417 nM | 157.3 °C | > 10 µM | – | – | > 3000 nM | 490 nM | – | –
34 | COc1cc(-c2nc3n(n2)CCN(C)C3c2ccccc2C(F)(F)F)ccc1-n1cnc(C)c1 (centres unmarked) [Compound 275] | 269 nM | 154.26 °C | > 10 µM | – | – | – | – | – | –
35 | COc1cc(-c2nc(C(=O)c3ccc(F)cc3)n(C)n2)ccc1-n1cnc(C)c1 [Compound 21] | 6920 nM | 145.3 °C | > 10 µM | – | – | – | – | – | –

From patent US8946266B2, “Substituted triazole and imidazole derivatives as gamma secretase modulators” (Janssen Pharmaceuticals, Inc., priority 2009, dated 2015)
